Measurements reported in ChEMBL document CHEMBL3751755, “Developing steroidal aromatase inhibitors-an effective armament to win the battle against breast cancer” (Eur J Med Chem, 2015).

Target: T1, Aromatase (Homo sapiens, UniProt P11511)
T1 sequence (P11511 whole entry): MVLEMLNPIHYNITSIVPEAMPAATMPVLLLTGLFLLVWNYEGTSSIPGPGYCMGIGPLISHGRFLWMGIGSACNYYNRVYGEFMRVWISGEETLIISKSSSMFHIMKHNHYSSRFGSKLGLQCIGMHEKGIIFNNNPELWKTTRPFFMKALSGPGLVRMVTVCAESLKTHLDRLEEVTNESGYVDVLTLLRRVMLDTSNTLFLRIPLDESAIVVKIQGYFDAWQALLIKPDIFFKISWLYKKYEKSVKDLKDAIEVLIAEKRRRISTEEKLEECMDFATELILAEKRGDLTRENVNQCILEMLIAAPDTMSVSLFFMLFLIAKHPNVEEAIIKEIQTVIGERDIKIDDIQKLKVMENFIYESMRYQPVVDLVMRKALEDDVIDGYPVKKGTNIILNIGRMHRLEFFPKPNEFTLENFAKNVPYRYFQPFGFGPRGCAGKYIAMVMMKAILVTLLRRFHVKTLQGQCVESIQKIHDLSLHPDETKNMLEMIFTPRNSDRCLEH

SMILES | Ki [nM]
C[C@@H]1C[C@@H]2[C@H](CC[C@]3(C)[C@@H](O)CC[C@@H]23)c2ccc(O)cc21 | 100
C[C@]12CCC(=O)C=C1[C@@H](c1ccc(O)cc1)C[C@@H]1[C@@H]2CC[C@]2(C)C(=O)CC[C@@H]12 | 27
C[C@]12CCC(=O)C=C1[C@@H](OCc1ccccc1)C[C@@H]1[C@@H]2CC[C@]2(C)C(=O)CC[C@@H]12 | 7
C[C@]12CCC(=O)C=C1C(CCc1ccccc1)=C[C@@H]1[C@@H]2CC[C@]2(C)C(=O)CC[C@@H]12 | 10
CCCCC[C@H]1C[C@@H]2[C@H](CC[C@]3(C)C(=O)CC[C@@H]23)[C@@]2(C)CCC(=O)C=C12 | 9.3
CCC1=C[C@@H]2[C@H](CC[C@]3(C)C(=O)CC[C@@H]23)[C@@]2(C)C=CC(=O)C=C12 | 2.5
Cc1cc2c(cc1O)CC[C@@H]1[C@@H]2CC[C@]2(C)[C@@H](O)CC[C@@H]12 | 100
C[C@]12CC[C@H]3[C@@H](CC[C@]45O[C@H]4C(=O)CC[C@]35C=O)[C@@H]1CCC2=O | 5000
CCCCCC[C@H]1C[C@@H]2[C@H](CC[C@]3(C)C(=O)CC[C@@H]23)[C@@]2(C)CCC(=O)C=C12 | 9.3
C[C@]12CCC(=O)C=C1[C@H](CCCCc1ccccc1)C[C@@H]1[C@@H]2CC[C@]2(C)C(=O)CC[C@@H]12 | 16
CC(=O)OC1=C2CC[C@@H]3[C@H](CC[C@]4(C)C(=O)CC[C@@H]34)[C@@]2(C)CCC1 | 60
C[C@]12CC[C@@H]3c4cc(Cl)c(O)cc4CC[C@H]3[C@@H]1CCC2=O | 100
C[C@]12CC[C@H]3[C@@H](C(=O)[C@H]4O[C@]45C(=O)CCC[C@]35C)[C@@H]1CCC2=O | 5000
C[C@]12CC[C@@H]3c4ccc(O)cc4[C@H](CCCc4ccccc4)C[C@H]3[C@@H]1CCC2=O | 100
C[C@]12CC[C@@H]3c4ccc(O)cc4[C@@H](Cc4ccccc4)C[C@H]3[C@@H]1CCC2=O | 100
CCCCCC1=C[C@@H]2[C@H](CC[C@]3(C)C(=O)CC[C@@H]23)[C@@]2(C)CCC(=O)C=C12 | 17
C[C@]12CCCC(OC(=O)c3ccccc3)=C1CC[C@@H]1[C@@H]2CC[C@]2(C)C(=O)CC[C@@H]12 | 70
C[C@]12CC[C@@H]3c4cc(F)c(O)cc4CC[C@H]3[C@@H]1CC[C@@H]2O | 100
C[C@]12CC[C@@H]3c4cc(Br)c(O)cc4CC[C@H]3[C@@H]1CCC2=O | 100
C[C@]12CC[C@@H]3c4ccc(O)cc4[C@H](Cc4ccccc4)C[C@H]3[C@@H]1CCC2=O | 100
CC1(C)C[C@@]2(C)C(=CC1=O)[C@@H](Br)C[C@@H]1[C@@H]2CC[C@]2(C)C(=O)CC[C@@H]12 | 14
CCCCCC(=O)O[C@H]1C[C@@H]2[C@H](CC[C@]3(C)C(=O)CC[C@@H]23)[C@@]2(C)CCC(=O)C=C12 | 7
CCCCC1=C[C@@H]2[C@H](CC[C@]3(C)C(=O)CC[C@@H]23)[C@@]2(C)C=CC(=O)C=C12 | 2.5
CCCCCCCC1=C[C@@H]2[C@H](CC[C@]3(C)C(=O)CC[C@@H]23)[C@@]2(C)CCC(=O)C=C12 | 17

SMILES | Ki [nM]
C[C@H]1C[C@@H]2[C@H](CC[C@]3(C)C(=O)CC[C@@H]23)[C@@]2(C)CCCC=C12 | 3.1
C[C@]12CC[C@H]3[C@@H](CC(=O)[C@]45O[C@H]4C(=O)CC[C@]35C)[C@@H]1CCC2=O | 5000
C[C@]12CCC(=O)C=C1[C@@H](c1ccc(OS(N)(=O)=O)cc1)C[C@@H]1[C@@H]2CC[C@]2(C)C(=O)CC[C@@H]12 | 39
CCC1=C[C@@H]2[C@H](CC[C@]3(C)C(=O)CC[C@@H]23)[C@@]2(C)CCC(=O)C=C12 | 17
C[C@]12CC[C@@H]3c4cc(Cl)c(O)cc4CC[C@H]3[C@@H]1CC[C@@H]2O | 100
CCCCCC[C@@H]1C[C@@H]2[C@H](CC[C@]3(C)C(=O)CC[C@@H]23)[C@@]2(C)CCC(=O)C=C12 | 2.8
CCCCCC1=C[C@@H]2[C@H](CC[C@]3(C)C(=O)CC[C@@H]23)[C@@]2(C)C=CC(=O)C=C12 | 2.5
C[C@]12CC[C@H]3[C@@H](CC[C@]45O[C@H]4C(=O)CC[C@]35CO)[C@@H]1CCC2=O | 5000
C[C@]12C=CC(=O)C=C1C=C[C@@H]1[C@@H]2CC[C@]2(C)C(=O)CC[C@@H]12 | 2.5
CC(=O)O[C@@H]1C[C@@H]2[C@H](CC[C@]3(C)C(=O)CC[C@@H]23)[C@@]2(C)CCCC=C12 | 12
C[C@]12CCCC(=O)C1=CC[C@@H]1[C@@H]2CC[C@]2(C)C(=O)CC[C@@H]12 | 120
C[C@]12CC[C@@H]3c4ccc(O)cc4[C@@H](CCCc4ccccc4)C[C@H]3[C@@H]1CCC2=O | 100
C[C@]12CC[C@@H]3c4ccc(O)cc4[C@@H](Cc4ccccc4)C[C@H]3[C@@H]1CC[C@@H]2O | 100
CCCCCCC1=C[C@@]2(C)C(=C(O)C1=O)CC[C@@H]1[C@@H]2CC[C@]2(C)C(=O)CC[C@@H]12 | 31
C[C@]12C=CC(=O)C=C1C(CCc1ccccc1)=C[C@@H]1[C@@H]2CC[C@]2(C)C(=O)CC[C@@H]12 | 8.5
C[C@]12CC[C@H]3[C@@H](C(=O)[C@H]4O[C@]45C(=O)CCC[C@]35C=O)[C@@H]1CCC2=O | 5000
CCCCCCCC1=C[C@@H]2[C@H](CC[C@]3(C)C(=O)CC[C@@H]23)[C@@]2(C)C=CC(=O)C=C12 | 2.5
C[C@]12CC[C@@H]3c4ccc(O)cc4CC[C@H]3[C@@H]1CCC2=O [ESTRONE] | 2500
C[C@]12CC[C@@H]3c4ccc(O)c(NC(=O)c5ccncc5)c4CC[C@H]3[C@@H]1CCC2=O | 1530
CC[C@H]1C[C@@H]2[C@H](CC[C@]3(C)C(=O)CC[C@@H]23)[C@@]2(C)CCCC=C12 | 12
C[C@]12CC[C@@H]3c4cc(Br)c(O)cc4CC[C@H]3[C@@H]1CC[C@@H]2O | 100
C[C@]12CC[C@H]3[C@@H](CC(=O)[C@]45O[C@H]4C(=O)CC[C@]35C=O)[C@@H]1CCC2=O | 5000
CO[C@@H]1C[C@@H]2[C@H](CC[C@]3(C)C(=O)CC[C@@H]23)[C@@]2(C)CCCC=C12 | 12
C[C@H]1C[C@@H]2[C@H](CC[C@]3(C)[C@@H](O)CC[C@@H]23)c2ccc(O)cc21 | 100

SMILES | Ki [nM]
C[C@]12CCC(=O)C=C1C(Cc1ccccc1)=C[C@@H]1[C@@H]2CC[C@]2(C)C(=O)CC[C@@H]12 | 9
CCCCCCCC[C@@H]1C[C@@H]2[C@H](CC[C@]3(C)C(=O)CC[C@@H]23)[C@@]2(C)CCC(=O)C=C12 | 2.8
C[C@]12CC[C@@H]3c4cc(F)c(O)cc4CC[C@H]3[C@@H]1CCC2=O | 100
COC1=C[C@@]2(C)C(=CC1=O)CC[C@@H]1[C@@H]2CC[C@]2(C)C(=O)CC[C@@H]12 | 95
C[C@]12C=CC(=O)C=C1C(c1ccc(OS(N)(=O)=O)cc1)=C[C@@H]1[C@@H]2CC[C@]2(C)C(=O)CC[C@@H]12 | 56
C[C@]12CC[C@H]3[C@@H](CC=C4CCCC[C@@]43C)[C@@H]1CC[C@@H]2O | 58
CCCCC[C@@H]1C[C@@H]2[C@H](CC[C@]3(C)C(=O)CC[C@@H]23)[C@@]2(C)CCC(=O)C=C12 | 2.8
C[C@]12CCC(=O)C=C1[C@@H](CCc1ccccc1)C[C@@H]1[C@@H]2CC[C@]2(C)C(=O)CC[C@@H]12 | 16
CCCCCCCC[C@H]1C[C@@H]2[C@H](CC[C@]3(C)C(=O)CC[C@@H]23)[C@@]2(C)CCC(=O)C=C12 | 9.3
CCCCCCC1=C[C@@H]2[C@H](CC[C@]3(C)C(=O)CC[C@@H]23)[C@@]2(C)CCC(=O)C=C12 | 17
CO[C@H]1C[C@@H]2[C@H](CC[C@]3(C)C(=O)CC[C@@H]23)[C@@]2(C)CCCC=C12 | 12
C[C@]12CCC(=O)C=C1C(c1ccc(OS(N)(=O)=O)cc1)=C[C@@H]1[C@@H]2CC[C@]2(C)C(=O)CC[C@@H]12 | 30
C[C@]12CC[C@@H]3c4ccc(O)cc4[C@H](Cc4ccccc4)C[C@H]3[C@@H]1CC[C@@H]2O | 100
CCCC1=C[C@@H]2[C@H](CC[C@]3(C)C(=O)CC[C@@H]23)[C@@]2(C)CCC(=O)C=C12 | 17
C[C@]12CC[C@@H]3c4cc(NC(=O)c5ccncc5)c(O)cc4CC[C@H]3[C@@H]1CCC2=O | 2100
C[C@]12CC[C@@H]3c4ccc(O)cc4[C@H](CCCc4ccccc4)C[C@H]3[C@@H]1CC[C@@H]2O | 100
CCCCCCC1=C[C@@H]2[C@H](CC[C@]3(C)C(=O)CC[C@@H]23)[C@@]2(C)C=CC(=O)C=C12 | 2.5
C[C@]12CCC=CC1=CC[C@@H]1[C@@H]2CC[C@]2(C)C(=O)CC[C@@H]12 | 58
CC1(C)C[C@@]2(C)C(=CC1=O)[C@H](Br)C[C@@H]1[C@@H]2CC[C@]2(C)C(=O)CC[C@@H]12 | 10
C[C@]12CCC(=O)C=C1C(c1ccc(O)cc1)=C[C@@H]1[C@@H]2CC[C@]2(C)C(=O)CC[C@@H]12 | 23
CCCC1=C[C@@H]2[C@H](CC[C@]3(C)C(=O)CC[C@@H]23)[C@@]2(C)C=CC(=O)C=C12 | 2.5
C[C@]12CC[C@@H]3c4ccc(O)cc4[C@@H](CCCc4ccccc4)C[C@H]3[C@@H]1CC[C@@H]2O | 100
C[C@@H]1C[C@@H]2[C@H](CC[C@]3(C)C(=O)CC[C@@H]23)[C@@]2(C)CCCC=C12 | 5.3
